Values after ≈ are worked out from the molar mass of the structure shown.
Columns and labels:
Staphylococcus aureus [1] = experiment: Antibacterial activity against Staphylococcus aureus MTCC 96 assessed as growth inhibition by broth microdilution method; format: functional
Candida albicans [2] = experiment: Antifungal activity against Candida albicans MTCC 227 assessed as growth inhibition by broth microdilution method; format: functional
Pseudomonas aeruginosa = experiment: Antibacterial activity against Pseudomonas aeruginosa MTCC 2488 assessed as growth inhibition by broth microdilution method; format: functional
Aspergillus clavatus = experiment: Antifungal activity against Aspergillus clavatus MTCC 1323 assessed as growth inhibition by broth microdilution method; format: functional
Aspergillus niger = experiment: Antifungal activity against Aspergillus niger MTCC 282 assessed as growth inhibition by broth microdilution method; format: functional
Escherichia coli [3] = experiment: Antibacterial activity against Escherichia coli MTCC 442 assessed as growth inhibition by broth microdilution method; format: functional
Leishmania braziliensis = experiment: Antileishmanial activity against promastigote stage of Leishmania braziliensis H3 assessed as parasite growth inhibition after 72 hrs by Neubauer chamber counting method; format: functional, organism-based
Streptococcus pyogenes [4] = experiment: Antibacterial activity against Streptococcus pyogenes MTCC 443 assessed as growth inhibition by broth microdilution method; format: functional
Candida albicans [5] = experiment: Potency index, ratio of griseofulvin MIC to compound MIC for Candida albicans MTCC 227; format: functional
[6] = test system: Mycobacterium tuberculosis; experiment: Antitubercular activity against Mycobacterium tuberculosis H37Rv assessed as growth inhibition after 12 to 28 days by Lowenstein-Jensen agar method; format: functional; conditions: for MIC: Mycobacterium tuberculosis, H37Rv
Streptococcus pyogenes [7] = experiment: Potency index, ratio of ampicillin MIC to compound MIC for Streptococcus pyogenes MTCC 443; format: functional
Escherichia coli [8] = experiment: Potency index, ratio of ampicillin MIC to compound MIC for Escherichia coli MTCC 442; format: functional
Staphylococcus aureus [9] = experiment: Potency index, ratio of ampicillin MIC to compound MIC for Staphylococcus aureus MTCC 96; format: functional
[10] = Leishmania braziliensis, H3, 72 h, read-out: IC50

| SMILES | MIC99 (Staphylococcus aureus [1]) [µg/mL] | MIC99 (Candida albicans [2]) [µg/mL] | MIC99 (Pseudomonas aeruginosa) [µg/mL] | MIC99 (Aspergillus clavatus) [µg/mL] | MIC99 (Aspergillus niger) [µg/mL] | MIC99 (Escherichia coli [3]) [µg/mL] | IC50 (Leishmania braziliensis) | MIC99 (Streptococcus pyogenes [4]) [µg/mL] | Ratio (Candida albicans [5]) | growth inhibition (GI) [6] [%] | MIC [6] [µg/mL] | Ratio (Streptococcus pyogenes [7]) | Ratio (Escherichia coli [8]) | IC50 (Leishmania braziliensis; [10]) [µM] | Ratio (Staphylococcus aureus [9]) |
| --- | --- | --- | --- | --- | --- | --- | --- | --- | --- | --- | --- | --- | --- | --- | --- |
| O=C(/C=C/C=C/c1ccccc1)c1cccc([N+](=O)[O-])c1 | 125 | 250 | 100 | 1000 | 1000 | 200 | Not Active | 125 | 2 | 97 | 1000 (≈ 3580 µM) |  |  |  |  |
| COc1cc(C2CC(c3cccc([N+](=O)[O-])c3)=NN2C(C)=O)cc(OC)c1OC (centres undefined) | 250 | 250 | 200 | 500 | 500 | 250 | Not Active | 250 | 2 | 99 | 12.5 (≈ 31.3 µM) |  |  |  |  |
| COc1ccc(C2CC(c3cccc([N+](=O)[O-])c3)=NN2C(C)=O)c(OC)c1OC (centres undefined) | 250 | 1000 | 100 | 250 | 250 | 100 | Not Active | 250 |  | 99 | 250 (≈ 626 µM) |  |  |  |  |
| COc1cc(OC)c(C2CC(c3cccc([N+](=O)[O-])c3)=NN2C(C)=O)cc1OC (centres undefined) | 100 | 1000 | 125 | 250 | 250 | 125 | Not Active | 125 |  | 98 | 500 (≈ 1250 µM) |  |  |  |  |
| CC(=O)N1N=C(c2cccc([N+](=O)[O-])c2)CC1c1ccc2ccccc2c1 (centres undefined) | 100 | 250 | 250 | > 1000 | > 1000 | 250 | Not Active | 100 | 2 | 98 | 1000 (≈ 2780 µM) |  |  |  |  |
| CC(=O)N1N=C(c2cccc([N+](=O)[O-])c2)CC1/C=C/c1ccccc1 (centres undefined) | 250 | 500 | 100 | > 1000 | > 1000 | 62.5 | Not Active | 25 | 2 | 98 | 250 (≈ 745 µM) | 5 | 4 |  |  |
| COc1ccc(C2CC(c3cccc([N+](=O)[O-])c3)=NN2)cc1 (centres undefined) | 500 | 250 | 100 | 1000 | 1000 | 62.5 |  | 500 | 2 | 99 | 250 (≈ 841 µM) |  |  | > 100 |  |
| COc1ccc(/C=C/C(=O)c2cccc([N+](=O)[O-])c2)cc1OC | 200 | 500 | 200 | > 1000 | > 1000 | 100 |  | 200 |  | 98 | 500 (≈ 1600 µM) |  |  | > 100 |  |
| O=C(/C=C/c1ccc2c(c1)OCO2)c1cccc([N+](=O)[O-])c1 | 250 | 250 | 250 | 1000 | 1000 | 250 | Not Active | 250 | 2 | 99 | 250 (≈ 841 µM) |  |  |  |  |
| O=C(/C=C/c1ccc2ccccc2c1)c1cccc([N+](=O)[O-])c1 | 100 | 500 | 200 | 1000 | 1000 | 62.5 | Not Active | 125 |  | 98 | 500 (≈ 1650 µM) |  | 2 |  | 2 |
| CC1(C)S[C@@H]2[C@H](NC(=O)[C@H](N)c3ccccc3)C(=O)N2[C@H]1C(=O)O [AMPICILLIN] | 250 |  | 100 |  |  | 100 |  | 100 |  |  |  |  |  |  |  |
| COC1=CC(=O)C[C@@H](C)[C@]12Oc1c(Cl)c(OC)cc(OC)c1C2=O [GRISEOFULVIN] |  | 500 |  | 100 | 100 |  |  |  |  |  |  |  |  |  |  |
| CO[C@H]1/C=C/O[C@@]2(C)Oc3c(C)c(O)c4c(O)c(c(/C=N/N5CCN(C)CC5)c(O)c4c3C2=O)NC(=O)/C(C)=C\C=C\[C@H](C)[C@H](O)[C@@H](C)[C@@H](O)[C@@H](C)[C@H](OC(C)=O)[C@@H]1C [RIFAMPIN] |  |  |  |  |  |  |  |  |  | 98 | 40 (≈ 48.6 µM) |  |  |  |  |

From ChEMBL document CHEMBL2429852, “Synthesis and evaluation of new chalcones, derived pyrazoline and cyclohexenone derivatives as potent antimicrobial, antitubercular and antileishmanial agents” (Med Chem Res, 2013)
